Experimental findings from PubChem BioAssay AID1259411 (Chemical Carcinogenesis Research Information System (CCRIS), 2018) are described below.

In this series the test system is rodent carcinogenicity bioassays, tumor incidence. Briefly: CCRIS carcinogenicity studies. The note with it: Dose: 0, Dose: 0. An outline of the steps:
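NCI-built, expert-reviewed records of carcinogenicity and related test outcomes (mutagenicity, tumor promotion/inhibition) compiled from published and report sources, historical span 1985-2011, not updated.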

Active and inactive are the calls of the source. How the calls were made is not given here.

Consider `Cc1noc(NS(=O)(=O)c2ccc(N)cc2)c1C`, for which the carcinogen call is “inactive; negative” (Species: MOUSE, Strain/Sex: B6C3F1/FEMALE, Route: GAVAGE, 500, 2000 MG/KG IN 0.5% AQ CMC, 500, 2000 MG/KG IN 0.5% AQ CMC); “inactive; negative” (Species: MOUSE, Strain/Sex: B6C3F1/MALE, Route: GAVAGE, 500, 2000 MG/KG IN 0.5% AQ CMC, 500, 2000 MG/KG IN 0.5% AQ CMC); “inactive; negative” (Species: RAT, Strain/Sex: F344/FEMALE, Route: GAVAGE, 100, 400 MG/KG IN 0.5% AQ CMC, 100, 400 MG/KG IN 0.5% AQ CMC); “inactive; negative” (Species: RAT, Strain/Sex: F344/MALE, Route: GAVAGE, 100, 400 MG/KG IN 0.5% AQ CMC, 100, 400 MG/KG IN 0.5% AQ CMC).

Turning to `OC(Cn1cncn1)(Cn1cncn1)c1ccc(F)cc1F`, the carcinogen call runs as follows: (Species: RAT, Strain/Sex: SPRAGUE-DAWLEY/FEMALE, Route: ORAL, 2.5, 5, 10 MG/KG IN DIET FOR 24 MO (STUDY DURATION: 24 MO), 2.5, 5, 10 MG/KG IN DIET FOR 24 MO (STUDY DURATION: 24 MO)) “inactive; negative”; (Species: RAT, Strain/Sex: SPRAGUE-DAWLEY/MALE, Route: ORAL, 2.5, 5, 10 MG/KG IN DIET FOR 24 MO (STUDY DURATION: 24 MO), 2.5, 5, 10 MG/KG IN DIET FOR 24 MO (STUDY DURATION: 24 MO), Tumor Site: Type of Lesion: LIVER: HEPATOCELLULAR ADENOMA) “active; positive”.

Regarding `OC[C@@H](O)[C@@H](O)[C@H](O)[C@H](O)CO[C@H]1O[C@H](CO)[C@@H](O)[C@H](O)[C@H]1O`, the carcinogen call was “inactive; negative” (Species: MOUSE, Strain/Sex: SWISS/FEMALE, Route: ORAL, 2.5, 5, 10% IN DIET FOR LIFE (PARENTS FED DIETS BEFORE AND AFTER PREGNANCY AND DURING LACTATION) (STUDY DURATION: 104, 2.5, 5, 10% IN DIET FOR LIFE (PARENTS FED DIETS BEFORE AND AFTER PREGNANCY AND DURING LACTATION) (STUDY DURATION: 104); “inactive; negative” (Species: MOUSE, Strain/Sex: SWISS/MALE, Route: ORAL, 2.5, 5, 10% IN DIET FOR LIFE (PARENTS FED DIETS BEFORE AND AFTER PREGNANCY AND DURING LACTATION) (STUDY DURATION: 94, 2.5, 5, 10% IN DIET FOR LIFE (PARENTS FED DIETS BEFORE AND AFTER PREGNANCY AND DURING LACTATION) (STUDY DURATION: 94); “inactive; negative” (Species: RAT, Strain/Sex: WISTAR/FEMALE, Route: ORAL, 2.5, 5, 10% IN DIET FOR LIFE (PARENTS FED DIETS BEFORE AND AFTER PREGNANCY AND DURING LACTATION) (STUDY DURATION: 130, 2.5, 5, 10% IN DIET FOR LIFE (PARENTS FED DIETS BEFORE AND AFTER PREGNANCY AND DURING LACTATION) (STUDY DURATION: 130); “inactive; negative” (Species: RAT, Strain/Sex: WISTAR/MALE, Route: ORAL, 2.5, 5, 10% IN DIET FOR LIFE (PARENTS FED DIETS BEFORE AND AFTER PREGNANCY AND DURING LACTATION) (STUDY DURATION: 128, 2.5, 5, 10% IN DIET FOR LIFE (PARENTS FED DIETS BEFORE AND AFTER PREGNANCY AND DURING LACTATION) (STUDY DURATION: 128).

As for `CCCCCC[C@@H](O)C/C=C\CCCCCCCC(=O)O` (tested in a mixture with another compound), the carcinogen call is “inactive; negative” (Species: MOUSE, Strain/Sex: C57BL/FEMALE, Route: ORAL, 5% IN DIET FOR 80 WKS (STUDY DURATION: 80 WKS)); “inactive; negative” (Species: MOUSE, Strain/Sex: C57BL/MALE, Route: ORAL, 5% IN DIET FOR 80 WKS (study duration: 80 WKS)); “inactive; negative” (Species: RAT, Strain/Sex: WISTAR/FEMALE, Route: ORAL, 5% IN DIET FOR 2 YR (STUDY DURATION: 2 YR)); “inactive; negative” (Species: RAT, Strain/Sex: WISTAR/MALE, Route: ORAL, 5% IN DIET FOR 2 YR (STUDY DURATION: 2 YEARS)).

As for `O=C1c2ccccc2C(=O)c2c(O)c(O)cc(O)c21`, the carcinogen call (Species: RAT, Strain/Sex: F344/MALE, Route: ORAL, 1% IN DIET FOR 520 D (STUDY DURATION: 520 D), Tumor Site: Type of Lesion: URINARY BLADDER: CARCINOMA) was “active; positive”.

`CC(C)NC(=O)N1CC(=O)N(c2cc(Cl)cc(Cl)c2)C1=O`: the carcinogen call runs as follows: (Species: Mouse, Strain/Sex: CD-1/Female (50/Group), Route: Oral, 160, 800, 4000 ppm of 95.7% iprodione in diet for 99 wk, study duration 99 wk, 160, 800, 4000 ppm of 95.7% iprodione in diet for 99 wk, study duration 99 wk, Tumor Site: Type of Lesion: Liver: hepatocellular adenoma and carcinoma in high dose mice) “active; positive”; (Species: Mouse, Strain/Sex: CD-1/Male (50/Group), Route: Oral, 160, 800, 4000 ppm of 95.7% iprodione in diet for 99 wk, study duration 99 wk, 160, 800, 4000 ppm of 95.7% iprodione in diet for 99 wk, study duration 99 wk, Tumor Site: Type of Lesion: Liver: hepatocellular adenoma and carcinoma in high dose mice) “active; positive”; (Species: Rat, Strain/Sex: Sprague-Dawley/Female (60/Group), Route: Oral, 8.4, 16.5, 95 mg/kg/day of 94.5-95.7% iprodione in diet for 104 wk, study duration 104 wk, 8.4, 16.5, 95 mg/kg/day of 94.5-95.7% iprodione in diet for 104 wk, study duration 104 wk) “inactive; negative”; (Species: Rat, Strain/Sex: Sprague-Dawley/Male (60/Group), Route: Oral, 6.1, 12.4, 69 mg/kg/day of 94.5-95.7% iprodione in diet for 104 wk, study duration 104 wk, 6.1, 12.4, 69 mg/kg/day of 94.5-95.7% iprodione in diet for 104 wk, study duration 104 wk, Tumor Site: Type of Lesion: Testes: Interstitial cell adenoma (high dose only)) “active; positive”.

Take `O=[N+]([O-])c1ccc2ccc3c(O)ccc4ccc1c2c43`: the carcinogen call (Species: MOUSE, Strain/Sex: B6C3F1/FEMALE, Route: INTRAPERITONEAL, 7 NMOL (TOTAL DOSE), 1/7, 2/7 AND 4/7 OF THE TOTAL DOSE ADMINISTERED WITHIN 24 HR OF BIRTH AND AT 8 AND 15 D OF AGE) is “inactive; negative” and the carcinogen call (Species: MOUSE, Strain/Sex: B6C3F1/MALE, Route: INTRAPERITONEAL, 7 NMOL (TOTAL DOSE), 1/7, 2/7 AND 4/7 OF THE TOTAL DOSE ADMINISTERED WITHIN 24 HR OF BIRTH AND AT 8 AND 15 D OF AGE) was “inactive; negative”.

Regarding `CCNC(=S)NCC`, the carcinogen call is “inactive; negative” (Species: MOUSE, Strain/Sex: B6C3F1/FEMALE, Route: ORAL, 250, 500 PPM IN DIET, 250, 500 PPM IN DIET); “inactive; negative” (Species: MOUSE, Strain/Sex: B6C3F1/MALE, Route: ORAL, 250, 500 PPM IN DIET, 250, 500 PPM IN DIET); “active; positive” (Species: RAT, Strain/Sex: F344/FEMALE, Route: ORAL, 125, 250 PPM IN DIET, 125, 250 PPM IN DIET, Tumor Site: Type of Lesion: THYROID GLAND: FOLLICULAR CELL CARCINOMA OR FOLLICULAR CELL ADENOMA); “active; positive” (Species: RAT, Strain/Sex: F344/MALE, Route: ORAL, 125, 250 PPM IN DIET, 125, 250 PPM IN DIET, Tumor Site: Type of Lesion: THYROID GLAND: FOLLICULAR CELL CARCINOMA OR FOLLICULAR CELL ADENOMA).

Regarding `OC1c2cc3ccc4ccccc4c3nc2C2OC2C1O` (configuration not stated), the carcinogen call runs as follows: (Species: MOUSE, Strain/Sex: SWISS/FEMALE, Route: INTRAPERITONEAL, 1.05 UMOL GIVEN AS 150 NMOL IN 5 µL DMSO WITHIN 24 HR OF BIRTH, 300 NMOL IN 10 µL DMSO ON D 8 OF LIFE, AND 600 NMOL I) “inactive; negative”; (Species: MOUSE, Strain/Sex: SWISS/MALE, Route: INTRAPERITONEAL, 1.05 UMOL GIVEN AS 150 NMOL IN 5 µL DMSO WITHIN 24 HR OF BIRTH, 300 NMOL IN 10 µL DMSO ON D 8 OF LIFE, AND 600 NMOL I) “inactive; negative”.
